Here are results for one compound from paper PMC2933614, “Quantitative in vitro and in vivo pharmacological profile of CE-178253, a potent and selective cannabinoid type 1 (CB1) Receptor Antagonist” (BMC Pharmacology, 2010).

For one data set, the target named is T1, human CB2 receptor (Homo sapiens, UniProt P34972).
T1 construct: expressed in transfected cells
In words: Competition radioligand binding, human CB2. The procedure:
HEK293 (CB1) or CHO (CB1 and CB2) cells (ATCC) were stably transfected with the human CB1 or CB2 receptors. Rat brain, and recombinant CB1 and CB2 and membranes were prepared as described. A Pierce™ BCA kit was used to determine protein concentrations.
10 μg of membranes per well from human CB1 and CB 2 receptor transfected cells and rat brain was used in the assay. The plates were covered and placed in an incubator at 30°C for 60 min. At the end of the incubation period 125 μl of stop buffer (10% BSA plus TME) was added to the reaction plate. The plates were then harvested onto GF/C filter plates (Perkin Elmer Life Sciences) presoaked in BSA (5 mg/ml) plus TME. Each filter was washed twice with TME and dried overnight. In the morning the filters were counted on a Wallac Trilux™ counter.
(§1) Saturation and competition radioligand binding assays were used to characterize membranes prepared from human recombinant CB1 and CB2 and rat brain membranes.

The target of a further data set is T2, human CB1 in CHO cells (Homo sapiens, UniProt P21554).
T2 construct: expressed in transfected cells
In words: GTPγ[35S] functional assay, antagonism of CP-55940 stimulation, Schild analysis. It is filed as biochemical. As for the experimental part: GTPγ[^35S] binding assays were performed as described. GTPγ[^35S] binding assays were performed in a 96-well FlashPlate™ format in duplicate using 100 pM GTPγ[^35S] and 10 μg membrane per well in assay buffer composed of 50 mM Tris HCl (pH 7.4); 3 mM MgCl2 (pH 7.4); 10 mM MgCl2, 20 mM EGTA, 100 mM NaCl, 30 μM GDP, 0.1% BSA and the following protease inhibitors: 100 μg/ml bacitracin, 100 μg/ml benzamidine, 5 μg/ml aprotinin, and 5 μg/ml leupeptin. […] Assays were performed at 30°C for 1 hr. The FlashPlates™ were then centrifuged at 2000×g for 10 min. Stimulation of GTPγ[^35S] binding was then quantified using a Wallac Microbeta® [16].
as §1

Data set [1] in a line: Plasma to brain concentration ratios (brain impairment). In kind it is in vivo. As to conditions: Sprague-Dawley, rat, brain and plasma (unbound and total), oral; mean ± SD over 0.3, 1, 3, 10 mg/kg p.o., n = 3 per dose; read-out: Ratios of unbound plasma and total plasma to unbound brain and total brain concentrations.
A short description of a further data set: Indirect calorimetry. It is filed as in vivo, rat. The conditions noted are these: for Respiratory Quotient (VCO2/VO2): veh 0.85 ± 0.03; for VO2, ave, 1-3 hr (± S-D), increase in oxygen consumption: veh 3 ± 5. As for the experimental part: Whole body oxygen consumption was measured using an indirect calorimeter (Oxymax from Columbus Instruments, Columbus, OH) in male Sprague Dawley rats. The rats (300-380 g body weight) were placed in the calorimetry chambers and the chambers were placed in activity monitors. All studies were conducted during the light cycle. Prior to the measurement of oxygen consumption, the rats were fed standard chow ad libitum. During the measurement of oxygen consumption, food was not provided to the rats. Basal, pre-dose oxygen consumption and ambulatory activity were measured every 10 min for 2.5 to 3 hr. At the end of the basal pre-dosing period, the chambers were opened and the animals were administered a single dose of compound (or veh.) by oral gavage. CE-178253 was prepared in 0.5% methylcellulose as veh. Oxygen consumption and ambulatory activity were measured every 10 min for an additional 1-6 hr after dosing. Resting oxygen consumption, during pre- and post-dosing, was calculated by averaging the 10-min O2 consumption values, excluding periods of high ambulatory activity (ambulatory activity count > 100) and excluding the first 5 values of the pre-dose period and the first value from the post-dose period. Change in oxygen consumption is reported as percent and is calculated by dividing the post-dosing resting oxygen consumption by the pre-dose oxygen consumption (X 100). VO2, VCO2, RER and locomotor activity were all measured.

A short description of a further data set: Core body temperature. It is filed as in vivo, mouse. As to conditions: C57BL/6J mice, n = 5 per group. The procedure:
In a separate study, core body temperature was measured in C57BL/6J mice.

Data set [2] in a line: Four day DIO rat food intake and body weight study. As to conditions: 4-day, DIO rats. It is filed as in vivo. The procedure:
Male 15 week old S-D rats which had been maintained on a high fat diet (Research Diets, D12079BM, 45% kcal from fat) for 10 weeks were selected for the DIO weight loss study. DIO rats were singly housed were acclimated to handling and dosing and two days of food intake were recorded to establish baseline food intake values before dosing was initiated. The heaviest animals were randomly sorted and assigned to treatment groups (n = 8 per group). The mean starting weight of all animals was 639 ± 8 g. Rats were dosed (2 mls/kg) with veh. or CE-178253 according to body weight. FI and BW were recorded daily.
DIO rats were treated once daily with veh. (0.5% MC) or CE-178253 at doses of 0.3 mg/kg p.o. or 1 mg/kg p.o. in a 4-day study (Figures 6A and 6B). […] The effects on FI were apparent after the first doses and sustained over the 4-day study period. […] In contrast, there was no change in weight in veh-treated rats. Initial and final body weights of veh-treated rats were 643 ± 15 g and 645 ± 14 g, respectively. Initial and final body weights of 0.3 mg/kg CE-178253-treated rats were 632 ± 11 g and 616 ± 12 g, respectively. Initial and final body weights of 1 mg/kg CE-178253-treated rats were 637 ± 11 g and 602 ± 11 g, respectively. A statistically significant difference in BW between veh and the 1 mg/kg dose was observed (p < 0.05).

A further data set in a line: Rat oral PK studies. In kind it is in vivo.
Data set [3] relates to central CB1 receptor-driven responses. The arrangement: method as in PMID 17630359. As to conditions: cited from earlier work.

“And” between values parts separate entries of the source, which are not always exact repeats. Identical values can stand only once. Bounds are passed on as bounds.

By Ki is commonly meant a dissociation constant, usually derived from enzyme kinetics or from competition with a known ligand. In general, Kb refers to the equilibrium dissociation constant of an antagonist, usually derived from a functional assay. In general, Tmax refers to the time at which the peak concentration occurs.

T2 sequence (P21554 whole entry): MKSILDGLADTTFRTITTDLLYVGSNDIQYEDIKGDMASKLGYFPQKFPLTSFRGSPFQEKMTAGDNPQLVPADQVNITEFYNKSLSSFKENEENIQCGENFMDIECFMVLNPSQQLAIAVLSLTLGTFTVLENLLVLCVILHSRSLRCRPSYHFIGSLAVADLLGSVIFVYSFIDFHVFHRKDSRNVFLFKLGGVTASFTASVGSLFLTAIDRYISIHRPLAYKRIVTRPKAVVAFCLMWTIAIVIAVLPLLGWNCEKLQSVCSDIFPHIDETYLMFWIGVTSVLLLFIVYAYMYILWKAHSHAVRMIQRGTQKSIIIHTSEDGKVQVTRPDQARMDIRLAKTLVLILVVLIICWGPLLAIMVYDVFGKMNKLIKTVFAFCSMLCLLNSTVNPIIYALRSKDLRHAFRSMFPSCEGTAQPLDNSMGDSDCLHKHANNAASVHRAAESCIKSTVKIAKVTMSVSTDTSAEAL
T1 sequence (P34972 whole entry): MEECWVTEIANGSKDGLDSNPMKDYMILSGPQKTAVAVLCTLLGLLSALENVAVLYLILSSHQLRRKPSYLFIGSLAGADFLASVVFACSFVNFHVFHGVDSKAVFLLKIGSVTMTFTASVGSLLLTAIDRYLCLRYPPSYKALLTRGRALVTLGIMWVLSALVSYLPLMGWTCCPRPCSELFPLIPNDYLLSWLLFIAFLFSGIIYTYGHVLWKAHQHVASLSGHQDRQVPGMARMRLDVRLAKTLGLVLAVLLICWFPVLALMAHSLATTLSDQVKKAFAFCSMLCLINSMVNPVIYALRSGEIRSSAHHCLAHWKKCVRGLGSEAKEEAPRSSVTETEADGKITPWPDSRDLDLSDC

On to `CCNC1(C(N)=O)CN(c2nc(C)nc3c(-c4ccc(Cl)cc4)c(-c4ccccc4Cl)nn23)C1` [CE-178253], for which the Ki on human CB2 receptor ([3H]CP-55940, ± SEM (n), read-out: Ki, competition binding, hCB2) is 15700 ± 6170 nM; on human CB1 in CHO cells (inhibition of CP-55940-stimulated GTPγ[35S] binding, read-out: Antagonist Ki, GTPγ[35S] functional assay) it was 0.07 ± 0.01 nM. Further, on human CB2 receptor (difference in binding Ki values), the “Selectivity (hCB2 vs hCB1 binding Ki)” value is recorded as > 30,000 fold. On human CB1 in CHO cells (GTPγ[35S] assay), this compound had a Kb of 0.63 nM. At human CB1 in CHO cells (GTPγ[35S] functional assay, Schild slope), this compound displayed a Slope of 0.83. Besides, the Plasma-to-brain concentration ratio at […] in data set [1] turned out to be 2.9 ± 0.25. Besides, the “Respiratory Quotient (VCO2/VO2)” value is 0.74 ± 0.02 in the data set “Indirect calorimetry” (1 mg/kg p.o.) and 0.75 ± 0.03 in “Indirect calorimetry” (3 mg/kg p.o.). The “VO2, ave, 1-3 hr (± S-D), increase in oxygen consumption” value in the data set “Indirect calorimetry” (1 mg/kg p.o.) is 28% and 28 ± 7 %; in the data set “Indirect calorimetry” (3 mg/kg p.o.), 39% and 39 ± 5 %. Further, the “Respiratory quotient after dosing” value in “Indirect calorimetry” (declined from 0.85 over the first hr, dose not stated) came out at 0.75. Moreover, the “Acute stimulation of energy expenditure” value in the data set “Indirect calorimetry” (rats, dose not stated) is “greater than 30%”. In addition, the “Increase in core body temperature compared to veh” value in the data set “Core body temperature” (1 mg/kg) was 0.7 ± 0.3 °C; in the data set “Core body temperature” (3 mg/kg), 1.2 ± 0.3 °C. For the same compound, the “Decrease in body weight compared to veh” value turned out to be 3.3% in data set [2] (0.3 mg/kg p.o. once daily) and 5.9% in data set [2] (1 mg/kg p.o. once daily). The Final body weight in data set [2] (0.3 mg/kg, initial 632 ± 11 g) is recorded as 616 ± 12 g; in data set [2] (1 mg/kg, initial 637 ± 11 g) it was 602 ± 11 g. Also, the “Exposure in chow-fed versus DIO rats” value in “Rat oral PK studies” (PK studies) is on record as “no differences in exposure”. Also, in the data set “Rat oral PK studies” (Sprague Dawley, rat, in vivo, oral, data not shown), the Tmax is 1 h. In data set [3], the “Effect on CP-55940 responses in all four components of the tetrad” value is recorded as “dose-dependently reversed”.
